From article PMC11996873, “Asparagine drives immune evasion in bladder cancer via RIG-I stability and type I IFN signaling” (The Journal of Clinical Investigation, 2025)

Biological target: T1, RIG-I (Homo sapiens, UniProt O95786)
T1 construct: gene RIGI
T1 sequence (O95786 1-925): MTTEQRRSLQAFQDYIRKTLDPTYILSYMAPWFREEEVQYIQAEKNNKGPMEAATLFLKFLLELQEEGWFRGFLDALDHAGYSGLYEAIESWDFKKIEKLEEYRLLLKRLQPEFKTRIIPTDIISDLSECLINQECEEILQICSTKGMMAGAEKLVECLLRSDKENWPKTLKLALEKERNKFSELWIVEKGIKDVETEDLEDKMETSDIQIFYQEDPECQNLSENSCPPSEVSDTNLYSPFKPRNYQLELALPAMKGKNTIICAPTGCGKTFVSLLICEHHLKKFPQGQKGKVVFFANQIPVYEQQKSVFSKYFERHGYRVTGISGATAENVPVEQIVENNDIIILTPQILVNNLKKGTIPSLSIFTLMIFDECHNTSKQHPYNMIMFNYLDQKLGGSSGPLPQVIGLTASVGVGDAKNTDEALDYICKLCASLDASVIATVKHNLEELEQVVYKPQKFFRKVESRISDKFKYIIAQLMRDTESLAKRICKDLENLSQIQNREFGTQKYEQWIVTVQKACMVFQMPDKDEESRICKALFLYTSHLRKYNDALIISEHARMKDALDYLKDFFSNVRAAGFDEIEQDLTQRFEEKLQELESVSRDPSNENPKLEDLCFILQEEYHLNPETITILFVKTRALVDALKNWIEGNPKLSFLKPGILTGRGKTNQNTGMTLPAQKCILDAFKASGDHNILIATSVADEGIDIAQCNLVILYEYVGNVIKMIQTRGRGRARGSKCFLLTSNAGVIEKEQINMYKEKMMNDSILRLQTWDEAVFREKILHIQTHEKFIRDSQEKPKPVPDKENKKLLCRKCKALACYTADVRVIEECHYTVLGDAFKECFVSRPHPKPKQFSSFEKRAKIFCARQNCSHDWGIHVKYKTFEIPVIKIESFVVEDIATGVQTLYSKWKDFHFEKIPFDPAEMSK
Assay: microscale thermophoresis (Monolith NT.[…])
Type: binding

NC(=O)C[C@H](N)C(=O)O [asparagine]
Kd: 303 µM
